From patent US11629139B2 (priority 2017, dated 2023)

System: vesicular stomatitis virus particles (VSV) pseudotyped with EboV Zaire GP
Experiment: microbe, parasite or virus in culture
Type: cell-based
Details: not given

| SMILES | IC50 |
| --- | --- |
| Nc1ccc(Cl)cc1CN1CCN(C(=O)CNC(=O)C2CC23CCCC3)CC1 (centres unmarked) [Compound 1410, N-(2-(4-(2-Amino-5-chlorobenzyl)piperazin-1-yl)-2-oxoethyl)spiro[2.4]heptane-1-carboxamide] | 220 to 490 nM |

Same assay, conditions: Vesicular stomatitis virus

| SMILES | IC50 |
| --- | --- |
| Nc1c(Cl)cccc1CN1CCN(C(=O)CNC(=O)C2CC23CCC(F)(F)CC3)CC1 (centres unmarked) [Compound 1407, N-(2-(4-(2-Amino-3-chlorobenzyl)piperazin-1-yl)-2-oxoethyl)-6,6-difluorospiro[2.5]octane-1-carboxamide] | 230 to 500 nM |
| CCC1(CC)CC1C(=O)NCC(=O)N1CCN(Cc2cc(Cl)ccc2N)CC1 (centres unmarked) [Compound 1411, N-(2-(4-(2-amino-5-chlorobenzyl)piperazin-1-yl)-2-oxoethyl)-2,2-diethylcyclopropane-1-carboxamide] | 140 nM |
| CS(=O)(=O)c1ccc(Oc2cc(F)cc(CN3CCN(C(=O)CNC(=O)C4CC45CCC(F)(F)CC5)CC3)c2)cc1 (centres unmarked) [Compound 1459] | 200 nM |
| [2H]C([2H])(c1cc(Cl)ccc1NCc1cnco1)N1CCN(C(=O)CNC(=O)C2CC23CCC(F)(F)CC3)CC1 (centres unmarked) [Compound 1560] | 40 nM |
| Nc1ccc(Br)cc1CN1CCN(C(=O)CNC(=O)CC2CCC(F)(F)CC2)CC1 [Compound 1355, N-(2-(4-(2-Amino-5-bromobenzyl)piperazin-1-yl)-2-oxoethyl)-2-(4,4-difluorocyclohexyl)acetamide] | 1740 nM |
| Nc1ccc(-c2ccc(F)cc2)cc1CN1CCN(C(=O)CNC(=O)CC2CCC(F)(F)CC2)CC1 [Compound 1359, N-(2-(4-((4-Amino-4′-fluoro-[1,1′-biphenyl]-3-yl)methyl)piperazin-1-yl)-2-oxoethyl)-2-(4,4-difluorocyclohexyl)acetamide] | > 2000 nM |
| O=C(CC1CCC(F)(F)CC1)NCC(=O)N1CCN(Cc2cccc3ccncc23)CC1 [Compound 1427] | 2450 nM |
| CC(=O)Nc1ccc(COc2ccc(F)cc2CN2CCN(C(=O)CNC(=O)CC34CC5CC(C3)C(C5)C4)CC2)cc1 [Compound 1445] | 710 nM |
| O=C(CC1CCC(F)(F)CC1)NCC(=O)N1CCN(Cc2cccc(Oc3ccccn3)c2)CC1 [Compound 1451] | > 5000 nM |
| [2H]C([2H])(c1cc(Cl)ccc1NCc1ccc(F)cn1)N1CCN(C(=O)CNC(=O)[C@@H]2CC23CCC(F)(F)CC3)CC1 [Compound 1582] | 240 nM |
| Nc1ccc(CN2CCN(C(=O)CNC(=O)C3CC34CCC(F)(F)CC4)CC2)cc1Cl (centres unmarked) [Compound 1390, N-(2-(4-(4-Amino-3-chlorobenzyl)piperazin-1-yl)-2-oxoethyl)-6,6-difluorospiro[2.5]octane-1-carboxamide] | 1100 nM |
| O=C(NCC(=O)N1CCN(Cc2cc(Cl)cc(F)c2O)CC1)C1CC12CCC(F)(F)CC2 (centres unmarked) [Compound 1404, N-(2-(4-(5-chloro-3-fluoro-2-hydroxybenzyl)piperazin-1-yl)-2-oxoethyl)-6,6-difluorospiro[2.5]octane-1-carboxamide] | 630 nM |
| O=C(CC1CCC(F)(F)CC1)NCC(=O)N1CCN(Cc2cc(Cl)cc(OC3CC3)c2)CC1 [Compound 1365, N-(2-(4-(3-Chloro-5-cyclopropoxybenzyl)piperazin-1-yl)-2-oxoethyl)-2-(4,4-difluorocyclohexyl)acetamide] | 1600 nM |
| NC(=O)Nc1ccc(Br)cc1CN1CCN(C(=O)CNC(=O)CC2CCC(F)(F)CC2)CC1 [Compound 1360, N-(2-(4-(5-Bromo-2-ureidobenzyl)piperazin-1-yl)-2-oxoethyl)-2-(4,4-difluorocyclohexyl)acetamide] | > 2000 nM |
| O=C(CC12CC3CC(CC(C3)C1)C2)NCC(=O)N1CCN(Cc2cc(Br)ccc2O)CC1 [Compound 1026] | 300 to 500 nM |
| [2H]C([2H])(c1cc(Cl)ccc1NCc1cocn1)N1CCN(C(=O)CNC(=O)[C@@H]2CC23CCC(F)(F)CC3)CC1 [Compound 1583] | 150 nM |
| O=C(CC12CC3CC(CC(C3)C1)C2)NCC(=O)N1CCN(Cc2cc(Br)cc([N+](=O)[O-])c2)CC1 [Compound 1340, 2-((1R,3R,5S)-Adamantan-1-yl)-N-(2-(4-(3-bromo-5-nitrobenzyl)piperazin-1-yl)-2-oxoethyl)acetamide] | 1270 nM |
| O=C(CC12CC3CC(C1)CC(c1ccccc1)(C3)C2)NCC(=O)N1CCN(Cc2ccccc2OCc2ccc(Br)cc2)CC1 [Compound 1141] | 700 nM |
| O=C(CC12CC3CC(CC(C3)C1)C2)NCC(=O)N1CCN(Cc2cc(OC3CC3)ccc2F)CC1 [Compound 1354, 2-((1R,3R,5S)-Adamantan-1-yl)-N-(2-(4-(5-cyclopropoxy-2-fluorobenzyl)piperazin-1-yl)-2-oxoethyl)acetamide] | > 2000 nM |
| O=C(CC12CC3CC(CC(C3)C1)C2)NCC(=O)N1CCN(Cc2cc(Cl)ccc2Br)CC1 [Compound 1351, 2-((1R,3R,5S)-Adamantan-1-yl)-N-(2-(4-(2-bromo-5-chlorobenzyl)piperazin-1-yl)-2-oxoethyl)acetamide] | 1100 nM |
| Nc1ccc(Cl)cc1CN1CCN(C(=O)CNC(=O)C2CC23CCC3)CC1 (centres unmarked) [Compound 1807, N-(2-(4-(2-Amino-5-chlorobenzyl)piperazin-1-yl)-2-oxoethyl)spiro[2.3]hexane-1-carboxamide] | 2500 nM |

| SMILES | IC50 |
| --- | --- |
| COC(=O)c1ccc(COc2ccc(F)cc2CN2CCN(C(=O)CNC(=O)CC34CC5CC(CC(C5)C3)C4)CC2)cc1 [Compound 1112] | < 2000 nM |
| Nc1ccc(Cl)cc1CN1CCN(C(=O)CNC(=O)CC23CC4CC(CC(C4)C2)C3)CC1 [Compound 1321, 2-((1R,3R,5S)-Adamantan-1-yl)-N-(2-(4-(2-amino-5-chlorobenzyl)piperazin-1-yl)-2-oxoethyl)acetamide] | 90 nM |
| COC(=O)c1ccc(COc2ccc(Cl)cc2CN2CCN(C(=O)CNC(=O)CC3CCC(F)(F)CC3)CC2)cc1 [Compound 1333, Methyl 4-((4-chloro-2-((4-((2-(4,4-difluorocyclohexyl)acetyl)glycyl)piperazin-1-yl)methyl)phenoxy)methyl)benzoate] | 15 nM |
| [2H]C([2H])(c1cc(Cl)ccc1NCc1cnco1)N1CCN(C(=O)CNC(=O)[C@@H]2CC23CCC(F)(F)CC3)CC1 [Compound 1587] | 130 nM |
| COC(=O)c1ccc(COc2ccc(Cl)cc2CN2CCN(C(=O)CNC(=O)C(F)(F)C(F)F)CC2)cc1 [Compound 1358, Methyl 4-((4-chloro-2-((4-((2,2,3,3-tetrafluoropropanoyl)glycyl)piperazin-1-yl)methyl)phenoxy)methyl)benzoate] | 200 nM |
| O=C(CC1CCC(F)(F)CC1)NCC(=O)N1CCN(Cc2cc(Cl)cc3cccnc23)CC1 [Compound 1422, N-(2-(4-((6-Chloroquinolin-8-yl)methyl)piperazin-1-yl)-2-oxoethyl)-2-(4,4-difluorocyclohexyl)acetamide] | 360 nM |
| CN(C)c1ccc(CN2CCN(C(=O)CNC(=O)CC34CC5CC(CC(C5)C3)C4)CC2)cc1Cl [Compound 1251] | 1700 nM |
| N#Cc1ccc(COc2ccccc2CN2CCN(C(=O)CNC(=O)CC34CC5CC(CC(C5)C3)C4)CC2)cc1 [Compound 1259] | 700 nM |
| COC(=O)c1ccc(COc2ccc(Cl)cc2CN2CCN(C(=O)CNC(=O)CC34CC5CC(CC(C5)C3)C4)CC2)cc1 [Compound 1118] | 1 nM |
| NC(=O)c1ccc(Cl)cc1CN1CCN(C(=O)CNC(=O)CC23CC4CC(CC(C4)C2)C3)CC1 [Compound 1804] | 1900 nM |
| COC(=O)c1cccc(Oc2cc(Cl)cc(CN3CCN(C(=O)CNC(=O)CC45CC6CC(CC(C6)C4)C5)CC3)c2)c1 [Compound 1322, Methyl 3-(3-((4-((2-((1R,3R,5S)-adamantan-1-yl)acetyl)glycyl)piperazin-1-yl)methyl)-5-chlorophenoxy)benzoate] | 11 nM |
| O=C(CC1CCC(F)(F)CC1)NCC(=O)N1CCN(Cc2cc(F)cc3cccnc23)CC1 [Compound 1429, 2-(4,4-Difluorocyclohexyl)-N-(2-(4-((6-fluoroquinolin-8-yl)methyl)piperazin-1-yl)-2-oxoethyl)acetamide] | 950 nM |
| CN(C)S(=O)(=O)c1ccc(COc2ccccc2CN2CCN(C(=O)CNC(=O)CC34CC5CC(CC(C5)C3)C4)CC2)cc1 [Compound 1258] | 400 nM |
| [2H]C([2H])(c1cc(Cl)ccc1NCc1ncccn1)N1CCN(C(=O)CNC(=O)[C@@H]2CC23CCC(F)(F)CC3)CC1 [Compound 1580] | 700 nM |
| O=C(NCC(=O)N1CCN(Cc2cc(Cl)ccc2O)CC1)C1CC12CCC(F)(F)CC2 (centres unmarked) [Compound 1398, N-(2-(4-(5-Chloro-2-hydroxybenzyl)piperazin-1-yl)-2-oxoethyl)-6,6-difluorospiro[2.5]octane-1-carboxamide] | 75 to 320 nM |
| Nc1cc(OCc2ccc(Br)cc2)c(CN2CCN(C(=O)CNC(=O)CC34CC5CC(CC(C5)C3)C4)CC2)cc1Cl [Compound 1252] | 800 nM |
| O=C(CC12CC3CC(CC(C3)C1)C2)NCC(=O)N1CCN(Cc2cc(Br)ccc2F)CC1 [Compound 1337, 2-((1R,3R,5S)-Adamantan-1-yl)-N-(2-(4-(5-bromo-2-fluorobenzyl)piperazin-1-yl)-2-oxoethyl)acetamide] | 1200 nM |
| O=C(NCC(=O)N1CCN(Cc2cc(Cl)ccc2NCc2ncco2)CC1)[C@@H]1CC12CCC(F)(F)CC2 [Compound 1585] | 1300 nM |
| Cc1ccc(Cl)cc1CN1CCN(C(=O)CNC(=O)C2CC23CCC(F)(F)CC3)CC1 (centres unmarked) [Compound 1431, N-(2-(4-(5-Chloro-2-methylbenzyl)piperazin-1-yl)-2-oxoethyl)-6,6-difluorospiro[2.5]octane-1-carboxamide] | 550 nM |
| O=C(CC12CC3CC(CC(C3)C1)C2)NCC(=O)N1CCN(Cc2cc(Cl)ccc2O)CC1 [Compound 1249, 2-((1R,3R,5S)-Adamantan-1-yl)-N-(2-(4-(5-chloro-2-hydroxybenzyl)piperazin-1-yl)-2-oxoethyl)acetamide] | 200 nM |
| O=C(CC12CC3CC(CC(C3)C1)C2)NCC(=O)N1CCN(Cc2cc(Cl)ccc2F)CC1 [Compound 1305, 2-((1R,3R,5S)-Adamantan-1-yl)-N-(2-(4-(5-chloro-2-fluorobenzyl)piperazin-1-yl)-2-oxoethyl)acetamide] | 360 nM |

Same assay, conditions: Vesicular stomatitis virus, read-out: IC50, VSV EBOV infection

| SMILES | IC50 |
| --- | --- |
| CC(C)c1nc(CN(C)C(=O)N[C@H](C(=O)N[C@@H](Cc2ccccc2)C[C@H](O)[C@H](Cc2ccccc2)NC(=O)OCc2cncs2)C(C)C)cs1 [Ritonavir, reference compound] | > 25000 nM |
